Entries after “also recorded” stand apart in the source; their conditions may differ.
Experiments:
vitamin D receptors = biological target: T1, vitamin D receptors (Homo sapiens, UniProt P11473); settings: prior-art patents; cited from earlier work
T1 sequence (P11473 1-427): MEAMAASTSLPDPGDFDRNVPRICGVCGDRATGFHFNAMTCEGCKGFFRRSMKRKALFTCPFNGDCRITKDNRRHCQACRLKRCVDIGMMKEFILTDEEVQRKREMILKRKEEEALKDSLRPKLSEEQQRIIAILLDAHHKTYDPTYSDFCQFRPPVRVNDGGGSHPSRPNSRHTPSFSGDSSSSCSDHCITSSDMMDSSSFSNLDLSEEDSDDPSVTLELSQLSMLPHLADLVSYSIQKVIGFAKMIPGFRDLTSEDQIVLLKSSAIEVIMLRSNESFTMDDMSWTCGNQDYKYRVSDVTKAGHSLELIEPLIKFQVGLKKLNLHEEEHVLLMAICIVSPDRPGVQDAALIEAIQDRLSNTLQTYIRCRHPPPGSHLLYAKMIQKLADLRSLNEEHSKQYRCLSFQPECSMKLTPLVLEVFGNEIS

cell differentiation = settings: prior art; cited from earlier work
[1] = cited from earlier work; for calcemic activity as compared to 1α,25-dihydroxyvitamin D3: prior-art patents
[2] = biological target: T2, full-length recombinant rat vitamin D receptor (Rattus norvegicus, UniProt P13053); assay: Vitamin D receptor competitive binding with [3H]-1,25-(OH)2-D3; settings: competition with [3H]-1,25-(OH)2-D3, recombinant rat receptor; FIG. 1
T2 construct: Full-length recombinant rat receptor was expressed in E. coli BL21(DE3) Codon Plus RIL cells; histidine tag (C); made in house; host or cells: E. coli BL21(DE3) Codon Plus RIL
T2 sequence (P13053 1-423): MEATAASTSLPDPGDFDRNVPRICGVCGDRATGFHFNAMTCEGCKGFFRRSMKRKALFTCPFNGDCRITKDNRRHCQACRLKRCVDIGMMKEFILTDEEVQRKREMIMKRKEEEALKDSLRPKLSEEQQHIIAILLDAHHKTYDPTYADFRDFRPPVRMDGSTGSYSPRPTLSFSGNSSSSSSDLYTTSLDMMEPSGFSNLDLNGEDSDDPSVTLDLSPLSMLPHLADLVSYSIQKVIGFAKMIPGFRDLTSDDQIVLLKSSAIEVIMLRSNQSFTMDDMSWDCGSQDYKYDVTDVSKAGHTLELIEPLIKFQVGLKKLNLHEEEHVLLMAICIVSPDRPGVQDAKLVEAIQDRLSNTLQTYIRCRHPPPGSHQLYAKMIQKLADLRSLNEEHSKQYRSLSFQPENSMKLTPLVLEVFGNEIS
Method: The first system was a nickel affinity resin that utilizes the C-terminal histidine tag on this protein. The protein that was eluted from this resin was further purified using ion exchange chromatography (S-Sepharose Fast Flow). Aliquots of the purified protein were quick frozen in liquid nitrogen and stored at −80° C. until use. For use in binding assays, the protein was diluted in TEDK50 (50 mM Tris, 1.5 mM EDTA, pH7.4, 5 mM DTT, 150 mM KCl) with 0.1% Chaps detergent. The receptor protein and ligand concentration was optimized such that no more than 20% of the added radiolabeled ligand was bound to the receptor.
The following day, 100 mcl of hydroxylapatite slurry (50%) was added to each tube and mixed at 10-minute intervals for 30 minutes. The hydroxylapaptite was collected by centrifugation and then washed three times with Tris-EDTA buffer (50 mM Tris, 1.5 mM EDTA, pH 7.4) containing 0.5% Titron X-100. After the final wash, the pellets were transferred to scintillation vials containing 4 ml of Biosafe II scintillation cocktail, mixed and placed in a scintillation counter. Total binding was determined from the tubes containing only radiolabeled ligand.

[3] = system: 24-hdyroxylase (24Ohase) gene promoter in ROS 17/2.8 (bone) cells; assay: In vitro transcription assay (luciferase reporter); format: cell-based; settings: Ros17/2.8 (bone) cells, 24-hydroxylase promoter-luciferase, 16 h; FIG. 5
Method: FIG. 5 is a graph comparing the in vitro transcription activity of NEL with that of 1,25(OH)2D3.
(C) In vitro Transcription Assay
Transcription activity was measured in ROS 17/2.8 (bone) cells that were stably transfected with a 24-hdyroxylase (24Ohase) gene promoter upstream of a luciferase reporter gene (Arbour et al., 1998). Cells were given a range of doses. Sixteen hours after dosing the cells were harvested and luciferase activities were measured using a luminometer. (RLU=relative luciferase units)

[4] = system: Human promyelocytic leukemia (HL60) cells; assay: HL-60 differentiation (nitro blue tetrazolium reduction); format: cell-based; settings: 4 days, NBT reduction, FIG. 4
Method: FIG. 4 is a graph comparing the percent HL-60 cell differentiation as a function of the concentration of NEL with that of 1,25(OH)2D3.
(B) HL-60 Differentiation
The study drugs were dissolved in ethanol and the concentrations determined using UV spectrophotometry. Serial dilutions were prepared so that a range of drug concentrations could be tested without changing the final concentration of ethanol (≦0.2%) present in the cell cultures.
Human promyelocytic leukemia (HL60) cells were grown in RPMI-1640 medium containing 10% fetal bovine serum. The cells were incubated at 37° C. in the presence of 5% CO2.
HL60 cells were plated at 1.2×10^5 cells/ml. Eighteen hours after plating, cells in duplicate were treated with drug. Four days later, the cells were harvested and a nitro blue tetrazolium reduction assay was performed (Collins et al., 1979; J. Exp. Med. 149:969-974). The percentage of differentiated cells was determined by counting a total of 200 cells and recording the number that contained intracellular black-blue formazan deposits. Verification of differentiation to monocytic cells was determined by measuring phagocytic activity (data not shown).

[5] = Intestinal calcium transport (everted gut sac method); format: in vivo, Sprague-Dawley rats; settings: rats, four consecutive ip doses; equimolar or 27 times the dose of 1α,25-dihydroxyvitamin D3; FIG. 3
From the text: FIG. 3 is a bar graph comparing the intestinal calcium transport activity of NEL with that of 1,25(OH)2D3.
(§1) (D) Intestinal Calcium Transport and Bone Calcium Mobilization
(§2) Male, weanling Sprague-Dawley rats were placed on Diet 11 (0.47% Ca) diet+AEK for one week followed by Diet 11 (0.02% Ca)+AEK for 3 weeks. The rats were then switched to a diet containing 0.47% Ca for one week followed by two weeks on a diet containing 0.02% Ca. Dose administration began during the last week on 0.02% calcium diet. Four consecutive ip doses were given approximately 24 hours apart. Twenty-four hours after the last dose, blood was collected from the severed neck and the concentration of serum calcium determined as a measure of bone calcium mobilization. The first 10 cm of the intestine was also collected for intestinal calcium transport analysis using the everted gut sac method.

[6] = Bone calcium mobilization (serum calcium); format: in vivo, Sprague-Dawley rats; settings: rats, four consecutive ip doses; equimolar or 27 times the dose of 1α,25-dihydroxyvitamin D3; FIG. 2
From the text: FIG. 2 is a bar graph comparing the bone calcium mobilization activity of NEL with that of 1,25(OH)2D3.
as §1, §2

[7] = PTH suppression and hypercalcemia; format: in vivo, Sprague-Dawley rats; settings: normal rats; expected
Method: (E) PTH Suppression and Hypercalcemia
Adult, female Sprague-Dawley rats are obtained from Harlan (Madison, Wis.).
Upon receipt, the animals are identified by individual tail marks. Animals may then be housed in suspended, stainless steel, wire-bottom cages. Each cage may contain one animal. The animal rooms are maintained at a temperature of 68 to 72° F. and a relative humidity of 25 to 75%. The holding rooms are set to provide 12 hours of light per day. Water and a purified rodent diet (Suda et al., Purified Rodent Diet-Diet 11) containing […] 0.3% phosphorus and fat soluble vitamins A, D, E and K are provided ad libitum
Animals are randomly assigned to treatment groups (5 animals/group). All doses are administered intraperitoneally in 100 microliters of propylene glycol. […]
Twenty-four hours after the final dose, blood is collected from the tail artery and the concentration of bioactive serum PTH is measured using the rat BioActive Intact PTH ELISA Kit from Immutopics, Inc. (San Clemente, Calif.).
Twenty-four hours after the final dose, approximately 1 ml of blood is collected from the tail artery of each experimental animal. […] The level of calcium is determined by diluting the serum into 0.1% lanthum chloride and measuring the absorbance on an atomic absorption spectrophotometer (Perkin Elmer Model 3110, Shelton, Conn.).

Row | Compound | binding activity to vitamin D receptors (vitamin D receptors) | cell differentiation activity (cell differentiation) | calcemic activity as compared to 1α,25-dihydroxyvitamin D3 [1] | other results
1 | 1α-hydroxy-2-methylene-19-nor-(20S)-homopregnacalciferol | relatively high | relatively high | little if any | 
2 | C=C1[C@H](O)CC(=C/C=C2\CCC[C@]3(C)[C@@H]([C@H](C)CCCC(C)O)CC[C@@H]23)C[C@H]1O (stereo partly drawn) [NEL, (20R, 25S)-2-Methylene-19,26-dinor-1α,25-dihydroxyvitamin D3] |  |  |  | binding to the vitamin D receptor compared with 1α,25-dihydroxyvitamin D3 [2]: somewhat more active; also recorded: relatively high binding; stimulating transcription of a reporter gene compared with 1α,25-dihydroxyvitamin D3 [3]: equally active; inducing differentiation of HL-60 cells compared with 1α,25-dihydroxyvitamin D3 [4]: equally active; intestinal calcium transport activity compared with 1α,25-dihydroxyvitamin D3 [5]: limited calcemic activity; also recorded: very low intestinal calcium transport activity; bone calcium mobilization (serum calcium) compared with 1α,25-dihydroxyvitamin D3 [6]: limited calcemic activity; also recorded: very low ability to mobilize calcium from bone; suppressing parathyroid hormone levels [7]: significant activity
3 | C[C@H](CCCC(C)(C)O)[C@H]1CC[C@H]2/C(=C/C=C3C[C@@H](O)C[C@H](O)C3)CCC[C@]12C [1α,25-dihydroxy-19-nor-vitamin D3] |  | high potency |  | calcium mobilizing activity ([1]; prior art): very low
4 | C=C1[C@H](O)CC(=C/C=C2\CCC[C@]3(C)[C@@H](CC)CC[C@@H]23)C[C@H]1O [1α-hydroxy-2-methylene-19-nor-pregnacalciferol] | relatively high | relatively high | little if any | 
5 | 1α-hydroxy-2-methylene-19-nor-bishomopregnacalciferol | relatively high | relatively high | little if any | 

Source: patent US20070191316A1, “VITAMIN D ANALOG - NEL, METHODS AND USES THEREOF” (WISCONSIN ALUMNI RESEARCH FOUNDATION, priority 2006, published 2007)
